According to article PMC11930087, “Mobility of four structural regions drives isoform-specific properties of photoenzyme LPOR in plants” (The Journal of Biological Chemistry, 2025):

Legend:
HaPOR2 = target: T1, HaPOR2 (Helianthus annuus, UniProt A0A251TWA4); assay: […] K Pchlide fluorescence in darkness, F648/F635 ratio vs NADPH, hyperbolic fit; assay type: binding; details: lipid-free; 5 μM Pchlide, 15 μM LPOR, pH 7.1, room-temperature dark incubation; apparent parameter, exact value in supplement; read-out: KM^D
T1 construct: gene PORA; transit peptide removed; pET15b
T1 sequence (A0A251TWA4 53-387): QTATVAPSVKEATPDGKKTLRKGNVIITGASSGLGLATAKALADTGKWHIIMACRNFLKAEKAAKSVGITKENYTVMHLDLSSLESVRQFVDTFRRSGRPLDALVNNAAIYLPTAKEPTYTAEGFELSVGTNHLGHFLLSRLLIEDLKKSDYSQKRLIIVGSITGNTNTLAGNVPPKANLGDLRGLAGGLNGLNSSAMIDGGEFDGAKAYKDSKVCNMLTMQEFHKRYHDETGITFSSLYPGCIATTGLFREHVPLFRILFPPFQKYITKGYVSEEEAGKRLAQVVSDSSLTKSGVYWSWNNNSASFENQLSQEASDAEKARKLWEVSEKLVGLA

SlPOR2 = target: T2, SlPOR2 (Solanum lycopersicum, UniProt A0A3Q7IBI0); assay: as above; assay type: binding; details: lipid-free; 5 μM Pchlide, 15 μM LPOR, pH 7.1, room-temperature dark incubation; apparent parameter, exact value in supplement; read-out: KM^D
T2 construct: gene POR; transit peptide removed; pET15b
T2 sequence (A0A3Q7IBI0 62-395): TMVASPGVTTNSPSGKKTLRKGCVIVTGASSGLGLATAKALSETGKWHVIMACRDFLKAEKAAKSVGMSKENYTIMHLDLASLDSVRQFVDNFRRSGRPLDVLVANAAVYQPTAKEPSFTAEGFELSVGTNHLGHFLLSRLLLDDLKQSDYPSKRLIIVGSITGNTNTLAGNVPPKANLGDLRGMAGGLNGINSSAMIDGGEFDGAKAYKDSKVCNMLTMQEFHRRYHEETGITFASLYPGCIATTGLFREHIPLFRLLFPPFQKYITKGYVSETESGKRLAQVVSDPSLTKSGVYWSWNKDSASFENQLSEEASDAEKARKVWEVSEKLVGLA

PinPOR = target: T3, PinPOR (Pinus mugo, UniProt Q41202); assay: as above; assay type: binding; details: lipid-free; 5 μM Pchlide, 15 μM LPOR, pH 7.1, room-temperature dark incubation; apparent parameter, exact value in supplement; read-out: KM^D
T3 construct: transit peptide removed; pET15b
T3 sequence (Q41202 67-400): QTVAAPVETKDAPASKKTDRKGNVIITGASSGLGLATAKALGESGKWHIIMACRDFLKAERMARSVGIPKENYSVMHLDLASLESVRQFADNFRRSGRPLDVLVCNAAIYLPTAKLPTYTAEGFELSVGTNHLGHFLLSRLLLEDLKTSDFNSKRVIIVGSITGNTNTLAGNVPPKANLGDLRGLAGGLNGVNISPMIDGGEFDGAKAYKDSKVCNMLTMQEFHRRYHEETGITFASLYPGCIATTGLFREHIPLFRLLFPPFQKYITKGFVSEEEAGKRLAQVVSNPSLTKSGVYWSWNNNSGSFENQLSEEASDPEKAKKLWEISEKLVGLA

TaPOR2 = target: T4, TaPOR2 (Triticum aestivum, UniProt A0A3B5XZQ9); details: 400 uM OPT lipids; substrate; read-out: illuminated, 400 uM OPT, KM^L
T4 construct: gene LOC123047424
T4 sequence (A0A3B5XZQ9 60-395): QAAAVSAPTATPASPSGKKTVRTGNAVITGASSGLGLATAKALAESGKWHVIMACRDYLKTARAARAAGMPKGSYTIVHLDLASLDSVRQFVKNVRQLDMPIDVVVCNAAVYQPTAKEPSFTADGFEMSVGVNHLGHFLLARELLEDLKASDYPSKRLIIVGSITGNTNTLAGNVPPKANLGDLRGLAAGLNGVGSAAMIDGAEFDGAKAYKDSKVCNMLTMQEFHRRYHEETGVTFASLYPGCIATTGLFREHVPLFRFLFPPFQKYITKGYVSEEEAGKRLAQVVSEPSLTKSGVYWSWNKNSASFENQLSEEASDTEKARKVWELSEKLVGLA
From the text: (§1) All samples were thawed in darkness, illuminated for 20 s to initiate the reaction, and then frozen again and remeasured. […] These plots also resembled saturation curves, to which a hyperbolic function similar to the modified Michaelis–Menten equation could be fitted (Figs. 3C, S5, Materials and Methods).

TaPOR1 = target: T5, TaPOR1 (Triticum aestivum, UniProt Q41578); details: 400 uM OPT lipids; substrate; read-out: illuminated, 400 uM OPT, KM^L
T5 construct: gene PORA
T5 sequence (Q41578 75-388): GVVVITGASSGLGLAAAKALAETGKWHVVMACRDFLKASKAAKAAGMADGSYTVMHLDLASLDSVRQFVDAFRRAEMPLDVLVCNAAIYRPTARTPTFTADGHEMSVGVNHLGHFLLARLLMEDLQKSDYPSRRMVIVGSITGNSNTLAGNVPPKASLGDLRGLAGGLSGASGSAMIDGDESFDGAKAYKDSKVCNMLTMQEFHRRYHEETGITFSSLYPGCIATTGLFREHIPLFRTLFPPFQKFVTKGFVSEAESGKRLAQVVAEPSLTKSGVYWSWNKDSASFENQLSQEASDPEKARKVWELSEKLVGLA
From the text: as §1

SlPOR1 = target: T6, SlPOR1 (Solanum lycopersicum, UniProt A0A3Q7HEX8); assay: […] K Pchlide fluorescence in darkness, F648/F635 ratio vs NADPH, hyperbolic fit; assay type: binding; details: lipid-free; 5 μM Pchlide, 15 μM LPOR, pH 7.1, room-temperature dark incubation; apparent parameter, exact value in supplement; read-out: KM^D
T6 construct: gene POR2; transit peptide removed; pET15b
T6 sequence (A0A3Q7HEX8 65-399): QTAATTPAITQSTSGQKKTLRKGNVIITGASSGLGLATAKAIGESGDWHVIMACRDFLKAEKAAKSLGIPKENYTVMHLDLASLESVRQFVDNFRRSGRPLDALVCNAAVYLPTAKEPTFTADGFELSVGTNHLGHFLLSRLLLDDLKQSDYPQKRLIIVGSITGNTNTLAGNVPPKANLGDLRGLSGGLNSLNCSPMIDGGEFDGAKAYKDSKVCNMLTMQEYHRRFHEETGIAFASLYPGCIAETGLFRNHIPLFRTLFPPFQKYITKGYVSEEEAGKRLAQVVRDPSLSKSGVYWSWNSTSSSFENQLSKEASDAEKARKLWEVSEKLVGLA

AtPORA = target: T7, AtPORA (Arabidopsis thaliana, UniProt Q42536); assay: as above; assay type: binding; details: lipid-free; 5 μM Pchlide, 15 μM LPOR, pH 7.1, room-temperature dark incubation; apparent parameter, exact value in supplement; read-out: KM^D
T7 construct: gene PORA
T7 sequence (Q42536 70-405): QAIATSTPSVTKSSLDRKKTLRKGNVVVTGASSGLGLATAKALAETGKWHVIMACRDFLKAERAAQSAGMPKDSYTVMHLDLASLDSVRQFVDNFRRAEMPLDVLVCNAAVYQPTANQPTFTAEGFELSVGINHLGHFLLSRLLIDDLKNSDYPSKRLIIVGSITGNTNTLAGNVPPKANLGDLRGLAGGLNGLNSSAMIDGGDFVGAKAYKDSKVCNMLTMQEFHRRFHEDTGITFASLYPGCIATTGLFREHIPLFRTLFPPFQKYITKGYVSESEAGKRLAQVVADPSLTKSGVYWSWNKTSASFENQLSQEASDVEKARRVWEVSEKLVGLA

- Kd (HaPOR2): < 10 µM
- Kd (SlPOR2): < 10 µM
- Kd (PinPOR): < 10 µM
- Km (TaPOR2): 6.1 µM
- Km (TaPOR1): 39.7 µM
- Kd (SlPOR1): < 10 µM
- Kd (AtPORA): > 100 µM
Compound: NC(=O)C1=CN([C@@H]2O[C@H](COP(=O)(O)OP(=O)(O)OC[C@H]3O[C@@H](n4cnc5c(N)ncnc54)[C@H](OP(=O)(O)O)[C@@H]3O)[C@@H](O)[C@H]2O)C=CC1 [NADPH]
